Measured values as given in patent publication US6229016A, “Method for treating tumors using 2-aryl-naphthyridin-4-ones” (priority 2000, dated 2001).
Where two headings read alike, the source gives them in different places.

Key:
tubulin = assay: Tubulin polymerization assay; type: biochemical, bovine
Protocol: Electrophoretically homogeneous bovine brain tubulin was purified as described in E. Hamel, et al. Biochemistry 23:4173 (1984).
The tubulin polymerization assay was performed as described in S. Kuo, et al. J. Med. Chem. 36:1146 (1993); L. Li, et al. J. Med. Chem. 37:1126 (1994); and L. Li J. Med. Chem. 37:3400 (1994). In brief, tubulin at 1.2 mg/ml (12 μM) was preincubated for 15 min at 26° C. in a 0.24-ml volume of 0.8 M monosodium glutamate (pH 6.6 with NaOH in a 2 M stock solution) with varying drug concentrations. The drug stock solutions were in DMSO, and the final solvent concentration was 4 % (v/v). All concentrations are in terms of the final reaction volume (0.25 ml). The reaction mixtures were chilled on ice, and 10 μl of 10 mM GTP was added to each reaction mixture. Samples were transferred to cuvettes held at 0° C. by an electronic temperature controller in Gilford spectrophotometers. Baselines were established at 350 nm, and polymerization initiated by a temperature jump to 26° C. The jump took about 50 sec to complete. After 20 min, turbidity readings were recorded, and the temperature controller was set to 0C. When depolymerization was complete, turbidity readings were again recorded. […] IC50 values were obtained graphically from inhibition of polymerization by different drug concentrations.
Electrophoretically, homogeneous bovine brain tubulin was purified as described in Example 6.
The tubulin polymerization assay was performed as described in Example 6.

[1] = test system: NCI's 60 human tumor cell line; assay: NCI 60 human tumor cell line in vitro screen (average / whole panel); type: cell-based; details: calculated from all cell lines tested, molar concentrations, read-out: average log GI50 (converted)
[2] = test system: HL-60(TB) leukemia cell line; assay: cells; type: cell-based; details: Homo sapiens; HL-60(TB); read-out: Cytotoxicity log GI50 (converted)
[3] = test system: NCI-H460 non-small cell lung cancer cell line; assay: NCI in vitro screen, non-small cell lung cancer NCI-H460; type: cell-based; details: Homo sapiens, read-out: Cytotoxicity log GI50 (converted)
[4] = test system: HCT-116 colon cancer cell line; assay: NCI in vitro screen, colon cancer HCT-116; type: cell-based; details: Homo sapiens; HCT-1.16 (head); HCT-116 (footnote); read-out: Cytotoxicity log GI50 (converted)
[5] = test system: SF-295 CNS cancer cell line; assay: NCI in vitro screen, CNS cancer SF-295; type: cell-based; details: Homo sapiens, read-out: Cytotoxicity log GI50 (converted)
[6] = test system: U-251 CNS cancer cell line; assay: NCI in vitro screen, CNS cancer U-251; type: cell-based; details: Homo sapiens, read-out: Cytotoxicity log GI50 (converted)
[7] = test system: SK-MEL-5 melanoma cell line; assay: NCI in vitro screen, melanoma SK-MEL-5; type: cell-based; details: Homo sapiens, read-out: Cytotoxicity log GI50 (converted)
Description: (§1) Compounds 41-51 and 53-68 were submitted to NCI and assayed in the NCI's in vitro disease-oriented antitumor screen, which involves determination of a test compound's effects on the growth of approximately 60 human tumor cell lines. See, M. R. Boyd, et al. In Cancer: Principles and Practice of Oncology Updates; De Vita, V. T., Hellman, S., Rosenberg, S. A., Eds; J. B. Lippincoft: Philadelphia, pp 1-12 (1989); and A. Monks, et al. J. Natl. Cancer Inst. 83:757 (1991). These lines include leukemia, non-small cell lung, colon, central nervous system (CNS), melanoma, ovarian, renal, prostate, and breast cancers.
(§2) Compounds 29'-51' were submitted to NCI and assayed in the NCI's in vitro disease-oriented antitumor screen, using the techniques described in Example 5. This assay involves determinations of a test agent's effect on growth parameters against a panel of approximately 60 human tumor cell lines, derived largely from solid tumors, including non-small cell lung, colon, central nervous system, renal, ovarian, prostate, and breast cancers, plus a few leukemia cell lines. The cytotoxic effects of each compound are obtained as GI50 or […] values, which represent the molar drug concentrations required to cause half growth inhibition and total growth inhibition, respectively. The results are expressed for each cell line as average log GI50 values in Table 4, as log GI50 values in Table 5, and as log TGI values and average log TGI values in Table 6.

[8] = test system: OVCAR-3 ovarian cancer cell line; assay: NCI in vitro screen, ovarian cancer OVCAR-3; type: cell-based; details: Homo sapiens, read-out: Cytotoxicity log GI50 (converted)
[9] = test system: 786-0 renal cancer cell line; assay: NCI in vitro screen, renal cancer 786-0; type: cell-based; details: Homo sapiens, read-out: Cytotoxicity log GI50 (converted)
Description: as §1, §2

[10] = test system: PC-3 prostate cancer cell line; assay: NCI in vitro screen, prostate cancer PC-3; type: cell-based; details: Homo sapiens, read-out: Cytotoxicity log GI50 (converted)
Description: as §1, §2

[11] = test system: MDA-MB-435 breast cancer cell line; assay: NCI in vitro screen, breast cancer MDA-MB-435; type: cell-based; details: Homo sapiens, read-out: Cytotoxicity log GI50 (converted)
[12] = test system: MDA-N breast cancer cell line; assay: NCI in vitro screen, breast cancer MDA-N; type: cell-based; details: Homo sapiens, read-out: Cytotoxicity log GI50 (converted)
Description: as §1, §2

[13] = Tables 1 and 4, read-out: ITP HC50 ± SD (Inhibition of Tubulin Polymerization)
[14] = read-out: IC50, inhibition of tubulin polymerization

Structure (SMILES)	IC50 (tubulin; [13])	IC50 (tubulin; [14])	GI50 [1]	GI50 [2]	GI50 [3]	GI50 [4]	GI50 [5]	GI50 [6]	GI50 [7]	GI50 [8]	GI50 [9]	GI50 [10]	GI50 [11]	GI50 [12]
Cc1cc(C)c2c(n1)N=C(c1ccc(F)cc1)CC2=O [Compound 60, 2-(4'-Fluorophenyl)-5,7-dimethyl-1,8-naphthyridin-4-one]	> 40 µM	> 40 µM	40.7 µM	15.5 µM	51.3 µM	50.1 µM	50.1 µM	95.5 µM	26.3 µM	43.7 µM	79.4 µM	30.2 µM	18.6 µM	25.1 µM
Cc1ccc2c(n1)N=C(c1ccc(F)cc1)CC2=O [Compound 59, 2-(4'-Fluorophenyl)-7-methyl-1,8-naphthyridin-4-one]	> 40 µM	> 40 µM	32.4 µM	14.1 µM	33.9 µM	33.9 µM	37.2 µM	37.2 µM	31.6 µM	32.4 µM	41.7 µM	20.9 µM	5.89 µM	11.7 µM
COc1ccc(C2=Nc3nc(C)cc(C)c3C(=O)C2)cc1 [Compound 55, 2-(4'-Methoxyphenyl)-5,7-dimethyl-1,8-naphthyridin-4-one]	> 40 µM		33.1 µM	15.8 µM	40.7 µM	36.3 µM	42.7 µM	91.2 µM	17.8 µM	32.4 µM	58.9 µM	24 µM	28.8 µM	33.1 µM
Cc1ccnc2c1C(=O)CC(c1ccc(F)cc1)=N2 [Compound 57, 2-(4'-Fluorophenyl)-5-methyl-1,8-naphthyridin-4-one]	18 ± 2 µM	11 to 32 µM	38 µM	4.79 µM	32.4 µM	16.2 µM	79.4 µM	36.3 µM	16.2 µM	56.2 µM	33.9 µM	51.3 µM	2.88 µM	3.55 µM
COc1ccccc1-c1cc(=O)c2c(C)cc(C)nc2[nH]1 [Compound 43]			57.5 µM	30.2 µM	70.8 µM	74.1 µM	53.7 µM	> 100 µM	33.9 µM	64.6 µM	> 100 µM	47.9 µM	32.4 µM	33.1 µM
Cc1ccc2c(=O)cc(-c3cccc(Cl)c3)[nH]c2n1 [35']			0.17 µM	0.0288 µM	0.0417 µM	0.0257 µM	0.0229 µM	0.0646 µM	0.0316 µM	< 0.01 µM	0.0417 µM	> 100 µM	< 0.01 µM	> 100 µM
COc1cccc(-c2cc(=O)c3c(C)cc(C)nc3[nH]2)c1 [Compound 48]			0.646 µM	0.174 µM	0.447 µM	0.407 µM	0.417 µM	0.17 µM	0.288 µM	0.251 µM	0.437 µM	0.309 µM	< 0.01 µM	< 0.01 µM
Cc1ccc(C2=Nc3nccc(C)c3C(=O)C2)cc1 [Compound 67, 2-(4'-Methylphenyl)-5-methyl-1,8-naphthyridin-4-one]	2.9 ± 0.7 µM													
COc1ccccc1-c1cc(=O)c2cc(C)cnc2[nH]1 [Compound 41]			31.6 µM	9.55 µM	32.4 µM	42.7 µM	30.9 µM	27.5 µM	20.4 µM	19.5 µM	41.7 µM	26.9 µM	3.02 µM	4.47 µM
